Key:
[1] = tested on: α-tubulin K40 and histone H3 acetylation; test: Acetylation of SIRT2 substrates in wild type primary cortical neurons; assay type: cell-based, mouse
Description: To assess protein levels, cell extracts were prepared from cells washed with PBS and lysed with buffer containing 2% SDS, Complete EDTA-free Protease Inhibitor Cocktail (Roche) and 1 mM phenylmethylsulfonyl fluoride. To prepare brain extracts for analysis, frozen mouse cortical tissues were homogenized in PBS containing protease inhibitors with an Kontes Pellet Pestle (Kimble/Kontes). They were later sonicated and lysed overnight at 4° C. in 2× volume of lysis buffer containing 2% SDS and protease inhibitors. Protein concentrations in ST14A cell extracts and homogenized cortical tissues were evaluated using a BCA analysis kit and normalized. Samples were prepared in a SDS buffer containing DTT and separated on bis-acrylamide protein gels via electrophoresis and transferred onto a 0.2 μm PVDF membrane). Membranes were probed for NQO1 (Sigma N5288, 1:1,000), GCLM, (Abcam ab126704, 1:800), SIRT2 (Sigma S8447, 1:2,500), histone H3 (Cell Signaling 4499, 1:2,000), acetylated H3 (K56) (Millipore 04-1135, 1:500), TNFα (Abcam ab1793, 1:1,500), GADPH (Millipore MAB374, 1:10,000), actin (Sigma A2066, 1:1250), α-tubulin (Sigma T6074, 1:20,000), and acetylated α-tubulin (Sigma T6793, 1:2,500) overnight in 5% milk in PBST at 4° C. on a rocker. Membranes were thrice washed in PBST for 15 min on a shaker and incubated in either an anti-rabbit-HRP (Bio-Rad 170-5046, 1:10,000) or anti-mouse-HRP (Sigma A3682, 1:4,000) secondary solution as appropriate in 3% milk in PBST for 1 hr at room temperature on a rocker. After four washes of 15 min in PBST on a shaker, blots were visualized using SuperSignal West Pico Chemiluminescent Substrate (Pierce 34080) or SuperSignal West Dura Extended Duration Substrate (Thermo 34075) and exposed on Scientific Imaging Film (Kodak 864 6770).
Based upon the robust neuroprotection observed in HD model systems expressing both mutant HTT fragments and full-length mutant HTT, verification of the bioactivity of MIND4 as SIRT2 inhibitor in primary neurons was sought. […]

[2] = tested on: α-tubulin (lysine K40) acetylation in ST14A cells; test: α-Tubulin acetylation in differentiated ST14A cells; assay type: cell-based, rat; details: mutant HD and wild type ST14A cells, 6 hours
Description: Compound bioactivity was tested in the rat embryonic striatal cell lines ST14A, which stably express either a mutant expanded repeat (128Q) or wild type (26Q) 546 amino acid huntingtin (HTT) fragment (a generous gift of E. Cattaneo) (Ehrlich et al., 2001) ST14A cells were propagated at 33° C. in the presence of serum. To induce neuronal differentiation, cells were serum deprived and cultured at 37° C. in the presence of N2 supplement. […]
This increased α-tubulin acetylation in compound-treated cells was consistent with the activity of MIND4 as a SIRT2 inhibitor.

[3] = tested on: primary astrocytes; test: IL-6 release from primary astrocytes of wild type and YAC128 mice (ELISA); assay type: cell-based, mouse; details: CSE-stimulated wild type and YAC128 astrocytes
Description: (§1) Whole brains were obtained from post-natal 1 to 3 day old wild type and YAC128 mouse pups on the FVB/N strain background and placed in Hanks Balanced Salt Solution (HBSS; Invitrogen) on ice. Meninges were removed and the remaining brain tissue was placed into growth medium (DMEM [Invitrogen], 10% FBS [PAA], 1% L-glutamine [Invitrogen], 1% penicillin/streptomycin [Invitrogen]), and homogenized using a 5 ml pipette. Cells of each brain were pelleted, re-suspended in growth medium and transferred into a T150 flask, cultured at 37° C. with 5% CO2. Growth medium was replaced after 24 hr and then every 7 days. After 18 to 21 days in culture, loosely attached microglia were harvested and seeded at 1.4×10^5 cells/ml with pre-incubated conditioned media into 96-well PRIMARIA™ tissue culture plates (BD Falcon). Adherent astrocytes were plated at 1.4×10^5 cells/ml in 10% FBS media for 24 hr in 96-well PRIMARIA™ tissue culture plates. After the initial isolation microglia and astrocytes were seeded at a density of 1.4×10^5 cells/ml into 96-well PRIMARIA™ tissue culture plates. […] Cells were lysed and total protein levels were determined using the microBCA kit (Thermo Scientific). Supernatants were analyzed using mouse IL-6 ELISA (e-Biocience) and IL-6 levels were normalized to total protein levels.

[4] = tested on: iBMM macrophages; test: Transcriptional responses in LPS-induced iBMM macrophages (qRT-PCR); assay type: cell-based, mouse; details: 24 hr
Description: Immortalized bone marrow derived mouse macrophages (iBMMs) and BV2 mouse microglia cell line were used in the present study. Both cell types were maintained in DMEM media supplemented with 10% FBS and antibiotic-antimycotic mix. Cells were seeded into 12 well plates at the density of 3×10^5 cells/well. Cells were treated with the indicated concentrations of MIND4-17 compounds for 24 hr. Cells were then stimulated with 10 ng/ml LPS (E. coli, Sigma) for 2 hr. Total RNA was isolated using ZR Miniprep kit (Zymo Research). […] of total RNA was used to prepare cDNA. Gene expression was analyzed using VeriQuest SYBR green assay (Affymetrix) in Roche480 thermocycler. Primer sequences are as described above (see Example 9).

[5] = tested on: primary microglia; test: IL-6 release from primary microglia of wild type and YAC128 mice (ELISA); assay type: cell-based, mouse; details: CSE and INF-γ stimulated wild type and YAC128 microglia
Description: as §1

Row | SMILES | Acetylation of histone 3 K56 and K27 ([1]; primary neurons, 6 hr) | Acetylation of α-tubulin and Histone 3 K56 ([1]; wild type primary cortical neurons (DIV11), 6 hours) | Acetylation of α-tubulin (lysine K40) [2] | IL-6 release [3] | Expression of inflammatory factors TNFα, IL-6, IL-1β and MCP-1 [4] | Transcription of GCLM and NQO1 [4] | IL-6 secretion [5]
1 | O=[N+]([O-])c1ccc(Sc2nnc(COc3ccccc3)n2-c2ccccc2)c2ncccc12 [MIND4, 5-nitro-8-{[5-(phenoxymethyl)-4-phenyl-4H-1,2,4-triazol-3-yl]thio}quinoline] | increased acetylation of histone 3 K56 and K27 | only subtle increases of acetylation | dose dependent increase in acetylation of α-tubulin | – | – | – | –
2 | O=[N+]([O-])c1ccc(Sc2nnc(COc3ccccc3)n2-c2ccccc2)nc1 [MIND4-17] | – | – | – | dose-response reduction of IL-6 release | repressed expression of inflammatory factors | increased transcription of GCLM and NQO1 | reduced the amount of IL-6 secreted

Reference: patent US9737525B2, “Small molecule activators of NRF2 pathway” (The General Hospital Corporation, priority 2013, dated 2017)
